# Data as given in paper PMC6775102, “Lifespan-increasing drug nordihydroguaiaretic acid inhibits p300 and activates autophagy” (NPJ Aging and Mechanisms of Disease, 2019).
# Target: T1, p300 (Homo sapiens, UniProt Q09472)
# T1 construct: gene EP300; p300 BHC (bromodomain, catalytic acetyltransferase domain, and C/H3 domain, amino acids 965–1810); also p300 HAT (amino acids 1284–1673)
# T1 sequence (Q09472 965-1810): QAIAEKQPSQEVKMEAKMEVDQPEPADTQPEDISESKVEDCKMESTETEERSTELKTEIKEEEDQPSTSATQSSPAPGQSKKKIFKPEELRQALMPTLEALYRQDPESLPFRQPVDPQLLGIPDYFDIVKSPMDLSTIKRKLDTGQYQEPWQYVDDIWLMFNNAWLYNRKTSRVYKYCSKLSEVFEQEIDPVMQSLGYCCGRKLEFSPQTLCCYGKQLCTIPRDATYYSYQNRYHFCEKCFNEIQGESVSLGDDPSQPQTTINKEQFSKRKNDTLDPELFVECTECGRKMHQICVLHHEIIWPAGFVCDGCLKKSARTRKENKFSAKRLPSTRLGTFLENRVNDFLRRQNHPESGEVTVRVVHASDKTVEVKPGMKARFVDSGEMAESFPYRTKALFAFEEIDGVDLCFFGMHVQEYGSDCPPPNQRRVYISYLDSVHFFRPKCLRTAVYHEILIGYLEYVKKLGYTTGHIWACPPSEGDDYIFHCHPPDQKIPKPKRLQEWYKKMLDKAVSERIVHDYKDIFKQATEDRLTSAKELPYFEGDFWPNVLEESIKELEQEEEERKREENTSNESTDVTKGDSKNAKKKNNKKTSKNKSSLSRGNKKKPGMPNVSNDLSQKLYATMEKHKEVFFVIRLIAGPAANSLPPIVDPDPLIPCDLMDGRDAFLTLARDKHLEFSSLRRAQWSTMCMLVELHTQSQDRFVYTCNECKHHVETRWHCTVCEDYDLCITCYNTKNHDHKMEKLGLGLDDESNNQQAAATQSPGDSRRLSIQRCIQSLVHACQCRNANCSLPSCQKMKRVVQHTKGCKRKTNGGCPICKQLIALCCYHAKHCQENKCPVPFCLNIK
# Assay: fluorimetric acetyltransferase assay with recombinant p300 BHC and H3 peptide; second assay with p300 HAT; supported by CETSA of p300 HAT in HEK293T cells (+[…] °C)
# Format: biochemical
smiles,measurement,value
CC(Cc1ccc(O)c(O)c1)C(C)Cc1ccc(O)c(O)c1 (stereo not shown) [nordihydroguaiaretic acid],IC50,10.3 µM
